From patent US8022206B2 (OSI Pharmaceuticals, LLC, priority 2008, dated 2011)
pIC50: −log10 of the molar value.

Columns and labels:
MET (human) = MET (human) (Homo sapiens, UniProt P08581); assay: MET (human) AlphaScreen kinase assay, Km of ATP; type: biochemical; details: AlphaScreen, Km of ATP; read-out: Met biochemical IC50
In short: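 Human MET at lot-optimised concentration in 50 mM Tris pH 7.4 buffer with 1 mM DTT, compound at 1% DMSO final; enzyme starts the reaction, 60 min at RT.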

RON (human) = RON (human) (Homo sapiens, UniProt Q04912); assay: RON (human) AlphaScreen kinase assay, Km of ATP; type: biochemical; details: AlphaScreen, Km of ATP; read-out: RON biochemical IC50
Chain of RON (human) (Q04912 25-1400): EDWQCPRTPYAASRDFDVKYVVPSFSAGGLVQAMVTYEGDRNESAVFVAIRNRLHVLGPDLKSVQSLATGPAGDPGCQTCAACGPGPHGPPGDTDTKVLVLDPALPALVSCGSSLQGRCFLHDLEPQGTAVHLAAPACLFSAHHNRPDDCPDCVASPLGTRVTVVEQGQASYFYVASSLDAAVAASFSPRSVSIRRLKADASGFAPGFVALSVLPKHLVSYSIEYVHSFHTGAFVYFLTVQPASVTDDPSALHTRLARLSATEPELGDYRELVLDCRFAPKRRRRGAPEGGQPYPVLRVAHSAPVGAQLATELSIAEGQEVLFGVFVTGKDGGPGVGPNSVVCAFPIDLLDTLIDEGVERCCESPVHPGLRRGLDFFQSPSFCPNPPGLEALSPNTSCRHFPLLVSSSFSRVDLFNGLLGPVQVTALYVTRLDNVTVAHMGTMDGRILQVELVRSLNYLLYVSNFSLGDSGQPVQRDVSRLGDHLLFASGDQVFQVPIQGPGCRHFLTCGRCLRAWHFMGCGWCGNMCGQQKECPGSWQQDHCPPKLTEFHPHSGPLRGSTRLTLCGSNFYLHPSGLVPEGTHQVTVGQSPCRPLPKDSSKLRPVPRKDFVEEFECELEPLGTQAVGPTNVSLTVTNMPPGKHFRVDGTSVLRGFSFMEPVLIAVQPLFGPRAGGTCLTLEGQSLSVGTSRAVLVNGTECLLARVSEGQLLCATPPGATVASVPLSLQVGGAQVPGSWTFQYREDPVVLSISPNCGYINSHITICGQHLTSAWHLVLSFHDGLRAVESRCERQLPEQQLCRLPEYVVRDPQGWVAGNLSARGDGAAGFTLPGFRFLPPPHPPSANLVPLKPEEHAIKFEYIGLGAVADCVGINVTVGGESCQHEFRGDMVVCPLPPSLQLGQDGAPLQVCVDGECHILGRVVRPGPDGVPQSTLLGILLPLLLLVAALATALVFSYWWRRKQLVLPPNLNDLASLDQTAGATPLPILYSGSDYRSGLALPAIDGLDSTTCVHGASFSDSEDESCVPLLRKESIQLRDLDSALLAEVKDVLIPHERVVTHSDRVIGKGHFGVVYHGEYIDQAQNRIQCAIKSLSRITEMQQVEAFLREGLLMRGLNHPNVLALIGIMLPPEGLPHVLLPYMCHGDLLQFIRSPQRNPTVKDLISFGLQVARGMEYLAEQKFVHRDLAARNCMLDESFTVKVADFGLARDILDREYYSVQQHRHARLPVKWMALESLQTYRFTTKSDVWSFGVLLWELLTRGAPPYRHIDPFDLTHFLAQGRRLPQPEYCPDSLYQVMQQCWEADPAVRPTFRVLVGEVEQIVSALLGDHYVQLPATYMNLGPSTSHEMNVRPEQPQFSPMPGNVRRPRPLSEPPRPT
In short: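 Reaction was started with enzyme and run 30 min at RT. PT66 donor/acceptor beads in an EDTA-containing Tris pH 7.5 buffer were then added, and the signal was read after 1 h.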

Chain of MET (human) (P08581 25-1390): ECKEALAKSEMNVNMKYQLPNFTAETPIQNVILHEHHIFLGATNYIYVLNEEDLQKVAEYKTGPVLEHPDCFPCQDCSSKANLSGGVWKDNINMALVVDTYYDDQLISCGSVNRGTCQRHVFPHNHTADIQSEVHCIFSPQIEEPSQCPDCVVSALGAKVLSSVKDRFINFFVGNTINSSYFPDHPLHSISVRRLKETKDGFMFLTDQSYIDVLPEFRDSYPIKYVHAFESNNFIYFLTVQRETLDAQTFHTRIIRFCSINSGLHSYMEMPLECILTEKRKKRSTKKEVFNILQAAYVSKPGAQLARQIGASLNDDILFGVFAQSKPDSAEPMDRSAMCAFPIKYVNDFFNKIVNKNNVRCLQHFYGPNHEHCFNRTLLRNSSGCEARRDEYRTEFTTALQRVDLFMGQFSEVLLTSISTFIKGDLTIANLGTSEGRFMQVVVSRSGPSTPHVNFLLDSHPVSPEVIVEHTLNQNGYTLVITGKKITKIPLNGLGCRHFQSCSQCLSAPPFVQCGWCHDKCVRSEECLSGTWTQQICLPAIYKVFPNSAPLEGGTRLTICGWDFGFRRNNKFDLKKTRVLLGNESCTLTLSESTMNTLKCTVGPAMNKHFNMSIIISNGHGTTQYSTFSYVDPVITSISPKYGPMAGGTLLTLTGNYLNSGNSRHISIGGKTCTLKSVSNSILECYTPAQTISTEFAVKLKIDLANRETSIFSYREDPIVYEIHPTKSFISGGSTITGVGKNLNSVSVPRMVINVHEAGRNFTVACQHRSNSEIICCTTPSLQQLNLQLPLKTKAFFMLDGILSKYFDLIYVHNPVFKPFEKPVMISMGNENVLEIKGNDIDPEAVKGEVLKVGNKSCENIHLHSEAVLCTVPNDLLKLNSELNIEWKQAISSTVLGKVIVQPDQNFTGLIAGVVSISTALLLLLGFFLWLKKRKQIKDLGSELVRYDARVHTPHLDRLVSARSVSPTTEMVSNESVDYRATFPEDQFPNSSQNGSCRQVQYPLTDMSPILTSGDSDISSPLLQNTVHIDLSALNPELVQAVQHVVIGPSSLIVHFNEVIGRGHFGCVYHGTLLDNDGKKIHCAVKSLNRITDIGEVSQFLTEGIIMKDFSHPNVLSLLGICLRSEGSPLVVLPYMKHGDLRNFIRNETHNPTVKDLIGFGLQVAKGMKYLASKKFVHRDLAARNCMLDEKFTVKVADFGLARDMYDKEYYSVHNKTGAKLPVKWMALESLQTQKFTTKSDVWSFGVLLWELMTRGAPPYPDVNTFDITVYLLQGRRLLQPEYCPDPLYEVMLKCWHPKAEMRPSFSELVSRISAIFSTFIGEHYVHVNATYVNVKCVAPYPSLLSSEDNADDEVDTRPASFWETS

pIC50 (MET (human))	pIC50 (RON (human))	SMILES
5.30 to 6.30	5.30 to 6.30	Cc1cccc(C)c1C(C)Oc1c(N)ncc2c(-c3cnn(C4CCNCC4)c3)coc12 (stereo not drawn) [Example 402, 7-[1-(2,6-Dimethylphenyl)ethoxy]-3-(1-piperidin-4-yl-1H-pyrazol-4-yl)furo[3,2-c]pyridin-6-ylamine]
5.30 to 6.30	5.30 to 6.30	C[C@@H](Oc1c(N)ncc2c(-c3csc(C(N)=O)c3)coc12)c1c(Cl)ccc(F)c1Cl [Example 318, 4-{6-Amino-7-[(R)-1-(2,6-dichloro-3-fluorophenyl)ethoxy]furo[3,2-c]pyridin-3-yl}thiophene-2-carboxamide]
5.30 to 6.30	5.30 to 6.30	C[C@@H](Oc1c(N)ncc2c(-c3ccc(CN4CCOCC4)s3)coc12)c1c(Cl)ccc(F)c1Cl [Example 291]
> 6.30	5.30 to 6.30	C[C@@H](Oc1c(N)ncc2c(C3=CCS(=O)(=O)CC3)coc12)c1c(Cl)ccc(F)c1Cl [Example 140, 7-[(1R)-1-(2,6-Dichloro-3-fluorophenyl)ethoxy]-3-(1,1-dioxido-3,6-dihydro-2H-thiopyran-4-yl)furo[3,2-c]pyridin-6-amine]
< 4.70	4.70 to 5.30	Cn1c(Cc2ccccc2)ncc(-c2ccc(COc3c(N)ncc4ccoc34)cc2)c1=O [Example 467, 5-[4-(6-Aminofuro[3,2-c]pyridin-7-yloxymethyl)phenyl]-2-benzyl-3-methyl-3H-pyrimidin-4-one]
> 6.30	5.30 to 6.30	CC(Cc1c(F)cccc1C(F)(F)F)Oc1c(N)ncc2c(-c3cnn(C4CCNCC4)c3)coc12 (stereo not drawn) [Example 441, 7-[2-(2-Fluoro-6-trifluoromethylphenyl)-1-methylethoxy]-3-(1-piperidin-4-yl-1H-pyrazol-4-yl)furo[3,2-c]pyridin-6-ylamine]
> 6.30	> 6.30	C[C@@H](Oc1c(N)ncc2c(C3=CCN(C(=O)[C@@H]4CCCN4)CC3)coc12)c1c(Cl)ccc(F)c1Cl [Example 22, (4-{6-Amino-7-[(R)-1-(2,6-dichloro-3-fluorophenyl)ethoxy]furo[3,2-c]pyridin-3-yl}-3,6-dihydro-2H-pyridin-1-yl)-(S)-pyrrolidin-2-ylmethanone]
> 6.30	4.70 to 5.30	C[C@@H](Oc1c(N)ncc2c(C3=CCN(C(=O)[C@H](N)Cc4cnc[nH]4)CC3)coc12)c1c(Cl)ccc(F)c1Cl [Example 264, (2R)-2-Amino-1-[4-{6-amino-7-[(1R)-1-(2,6-dichloro-3-fluoro-phenyl)ethoxy]furo[3,2-c]pyridin-3-yl}-3,6-dihydropyridin-1(2H)-yl]-3-(1H-imidazol-5-yl)propan-1-one]
5.30 to 6.30	5.30 to 6.30	C[C@@H](Oc1c(N)ncc2c(-c3cccc(C(=O)NCCN4CCOCC4)c3)coc12)c1c(Cl)ccc(F)c1Cl [Example 97, 3-{6-Amino-7-[(R)-1-(2,6-dichloro-3-fluorophenyl)ethoxy]-furo[3,2-c]pyridin-3-yl}-N-(2-morpholin-4-ylethyl)benzamide]
5.30 to 6.30	4.70 to 5.30	C[C@@H](Oc1c(N)ncc2c(C(N)=O)coc12)c1c(Cl)ccc(F)c1Cl [Example 180, 6-Amino-7-[(R)-1-(2,6-dichloro-3-fluorophenyl)ethoxy]furo[3,2-c]pyridine-3-carboxamide]
> 6.30	> 6.30	CC(Oc1c(N)ncc2c(-c3cnn(C4CCNCC4)c3)coc12)c1ccc(Cl)c(F)c1 (stereo not drawn) [Example 381, 7-[1-(4-Chloro-3-fluorophenyl)ethoxy]-3-(1-piperidin-4-yl-1H-pyrazol-4-yl)furo[3,2-c]pyridin-6-ylamine]
5.30 to 6.30	5.30 to 6.30	C[C@@H](Oc1c(N)ncc2c(-c3cc(C(=O)N(C)C)cs3)coc12)c1c(Cl)ccc(F)c1Cl [Example 328, 5-{6-Amino-7-[(R)-1-(2,6-dichloro-3-fluorophenyl)ethoxy]furo[3,2-c]pyridin-3-yl}thiophene-3-carboxylic acid Dimethylamide]
